In one test the test system is Haemonchus contortus L3. Nature of the test: microbe, parasite or virus in culture. The following applies: Haemonchus contortus, 96 h, read-out: HcL3 Minimal Effective Concentration (MEC). Format: cell-based.
The test system of another test is D. immitis microfilariae. Nature of the test: Dirofilaria immitis, microfilariae (DiMF) in vitro motility assay. Format: cell-based. The following applies: Dirofilaria immitis, 72 h, read-out: DiMF minimally effective dose (MEC).

The structures appear in SMILES notation.

Consider `Cc1ccc2c3c(n(C(=O)NCc4ccnc(Cl)c4)c2c1)CCN(C/C=C/c1ccc(Cl)c(Cl)c1)C3` [Example 145, (E)-N-((2-chloropyridin-4-yl)methyl)-2-(3-(3,4-dichlorophenyl)allyl)-7-methyl-1,2,3,4-tetrahydro-5H-pyrido[4,3-b]indole-5-carboxamide], for which the results for the minimal effective concentration in the test with Haemonchus contortus L3 and in the test on D. immitis microfilariae were 1 µM and 33 µM, respectively.
`N#Cc1ccc(/C=C/CN2CCc3c(c4ccc(C#N)cc4n3C(=O)NCc3ccnc(Cl)c3)C2)cc1` [Example 33, (E)-N-((2-chloropyridin-4-yl)methyl)-7-cyano-2-(3-(4-cyanophenyl)allyl)-1,2,3,4-tetrahydro-5H-pyrido[4,3-b]indole-5-carboxamide]: the values for the minimal effective concentration in the test on Haemonchus contortus L3 and in the test with D. immitis microfilariae were 3.3 µM and > 100 µM, respectively.
Regarding `O=C(NCc1cnc(Cl)s1)n1c2c(c3cc(Br)ccc31)CN(C/C=C/c1ccc(Cl)cc1)CC2` [Example 193, (E)-8-bromo-2-(3-(4-chlorophenyl)allyl)-N-((2-chlorothiazol-5-yl)methyl)-1,2,3,4-tetrahydro-5H-pyrido[4,3-b]indole-5-carboxamide], the minimal effective concentration in the test with Haemonchus contortus L3 is 1 µM; with D. immitis microfilariae, 75.8 µM.
The corresponding values for `N#Cc1ccc2c(c1)c1c(n2C(=O)NCc2ccnc(F)c2)CCN(C/C=C/c2c(F)cc(Cl)cc2F)C1` [Example 103, (E)-2-(3-(4-chloro-2,6-difluorophenyl)allyl)-8-cyano-N-((2-fluoropyridin-4-yl)methyl)-1,2,3,4-tetrahydro-5H-pyrido[4,3-b]indole-5-carboxamide] are 0.2 µM and 3.3 µM.
The corresponding values for `Cc1ccc2c(c1)c1c(n2C(=O)NCc2ccnc(Cl)c2)CCN(C/C=C/c2ccc(F)cc2)C1` [Example 433, (E)-N-((2-chloropyridin-4-yl)methyl)-2-(3-(4-fluorophenyl)allyl)-8-methyl-1,2,3,4-tetrahydro-5H-pyrido[4,3-b]indole-5-carboxamide] are 0.5 µM and 5.7 µM.
As for `N#Cc1ccc2c(c1)c1c(n2C(=O)NCc2ccnc(Cl)c2)CCN(C/C=C/c2ccc(Cl)c(Br)c2)C1` [Example 97, (E)-2-(3-(3-bromo-4-chlorophenyl)allyl)-N-((2-chloropyridin-4-yl)methyl)-8-cyano-1,2,3,4-tetrahydro-5H-pyrido[4,3-b]indole-5-carboxamide], the results for the minimal effective concentration in the test with Haemonchus contortus L3 and in the test with D. immitis microfilariae were 0.3 µM and > 100 µM, respectively.
Turning to `O=C(NCc1ccnc(Cl)c1)n1c2c(c3cc(OC(F)(F)F)ccc31)CN(C/C=C/c1ccc(F)c(Cl)c1)CC2` [Example 388, (E)-2-(3-(3-chloro-4-fluorophenyl)allyl)-N-((2-chloropyridin-4-yl)methyl)-8-(trifluoromethoxy)-1,2,3,4-tetrahydro-5H-pyrido[4,3-b]indole-5-carboxamide], the minimal effective concentration in the test with Haemonchus contortus L3 is 1.8 µM; with D. immitis microfilariae it was > 100 µM.
On to `O=C(NCc1ccnc(F)c1)n1c2c(c3cc(Cl)c(Cl)cc31)CN(C/C=C/c1ccc(Cl)cc1)CC2` [Example 292, (E)-7,8-dichloro-2-(3-(4-chlorophenyl)allyl)-N-((2-fluoropyridin-4-yl)methyl)-1,2,3,4-tetrahydro-5H-pyrido[4,3-b]indole-5-carboxamide], for which the minimal effective concentration in the test with Haemonchus contortus L3 was determined as 3.3 µM; with D. immitis microfilariae it was 5.7 µM.
Consider `O=C(NCc1ccnc(Cl)c1)n1c2c(c3cc(OC(F)(F)F)ccc31)CN(C/C=C/c1ccc(C(F)(F)F)cc1)CC2` [Example 396, (E)-N-((2-chloropyridin-4-yl)methyl)-8-(trifluoromethoxy)-2-(3-(4-(trifluoro-methyl)phenyl)allyl)-1,2,3,4-tetrahydro-5H-pyrido[4,3-b]indole-5-carboxamide], for which the values for the minimal effective concentration in the test with Haemonchus contortus L3 and in the test with D. immitis microfilariae were 3.3 µM and 1 µM, respectively.
`N#Cc1ccc2c(c1)c1c(n2C(=O)NCc2ccnc(Cl)c2)CCN(C/C=C/c2c(F)cc(F)cc2F)C1` [Example 76, (E)-N-((2-chloropyridin-4-yl)methyl)-8-cyano-2-(3-(2,4,6-trifluorophenyl)allyl)-1,2,3,4-tetrahydro-5H-pyrido[4,3-b]indole-5-carboxamide]: the results for the minimal effective concentration in the test on Haemonchus contortus L3 and in the test on D. immitis microfilariae were 0.1 µM and > 100 µM, respectively.
As to `CS(=O)(=O)c1ccc2c(c1)c1c(n2C(=O)NCc2ccnc(Cl)c2)CCN(C/C=C/c2ccc(Cl)cc2)C1` [Example 457, (E)-2-(3-(4-chlorophenyl)allyl)-N-((2-chloropyridin-4-yl)methyl)-8-(methylsulfonyl)-1,2,3,4-tetrahydro-5H-pyrido[4,3-b]indole-5-carboxamide], the minimal effective concentration amounted to 1 µM in the test on Haemonchus contortus L3 and 10 µM with D. immitis microfilariae.
For `O=C(NCc1ccnc(Cl)c1)n1c2c(c3cc(Br)ccc31)CN(C/C=C/c1ccc(F)c(F)c1)CC2` [Example 183, (E)-8-bromo-N-((2-chloropyridin-4-yl)methyl)-2-(3-(3,4-difluorophenyl)allyl)-1,2,3,4-tetrahydro-5H-pyrido[4,3-b]indole-5-carboxamide], the minimal effective concentration in the test with Haemonchus contortus L3 came to 0.5 µM; in the test with D. immitis microfilariae, 18.2 µM.
In the case of `N#Cc1ccc2c(c1)c1c(n2C(=O)NCc2ccnc(F)c2)CCN(C/C=C/c2cc(F)c(F)c(F)c2)C1` [Example 116, (E)-8-cyano-N-((2-fluoropyridin-4-yl)methyl)-2-(3-(3,4,5-trifluorophenyl)allyl)-1,2,3,4-tetrahydro-5H-pyrido[4,3-b]indole-5-carboxamide], the minimal effective concentration with Haemonchus contortus L3 amounted to 0.1 µM; with D. immitis microfilariae it was 1.3 µM.
Consider `O=C(NCc1ccnc(F)c1)n1c2c(c3c(F)cc(C(F)(F)F)cc31)CN(C/C=C/c1ccc(Cl)cc1)CC2` [Example 327, (E)-2-(3-(4-chlorophenyl)allyl)-9-fluoro-N-((2-fluoropyridin-4-yl)methyl)-7-(trifluoromethyl)-1,2,3,4-tetrahydro-5H-pyrido[4,3-b]indole-5-carboxamide], for which the results for the minimal effective concentration in the test on Haemonchus contortus L3 and in the test with D. immitis microfilariae were > 100 µM and 10 µM, respectively.
As to `O=C(NCc1ccnc(Cl)c1)n1c2c(c3cc(Cl)ccc31)CN(C/C=C/c1ccc(Cl)c(F)c1)CC2` [Example 232, (E)-8-chloro-2-(3-(4-chloro-3-fluorophenyl)allyl)-N-((2-chloropyridin-4-yl)methyl)-1,2,3,4-tetrahydro-5H-pyrido[4,3-b]indole-5-carboxamide], the minimal effective concentration in the test with Haemonchus contortus L3 was determined as 1 µM; in the test on D. immitis microfilariae, 10 µM.
As to `N#Cc1ccc2c(c1)c1c(n2C(=O)NCc2ccnc(F)c2)CCN(C/C=C/c2c(F)cc(F)cc2F)C1` [Example 106, (E)-8-cyano-N-((2-fluoropyridin-4-yl)methyl)-2-(3-(2,4,6-trifluorophenyl)allyl)-1,2,3,4-tetrahydro-5H-pyrido[4,3-b]indole-5-carboxamide], the minimal effective concentration is 0.3 µM with Haemonchus contortus L3 and > 100 µM in the test on D. immitis microfilariae.
Regarding `O=C(NCc1ccnc(Cl)c1)n1c2c(c3cc(F)ccc31)CN(C/C=C/c1ccc(Cl)c(Cl)c1)CC2` [Example 167, (E)-N-((2-chloropyridin-4-yl)methyl)-2-(3-(3,4-dichlorophenyl)allyl)-8-fluoro-1,2,3,4-tetrahydro-5H-pyrido[4,3-b]indole-5-carboxamide], the figures for the minimal effective concentration in the test on Haemonchus contortus L3 and with D. immitis microfilariae were 0.3 µM and 33 µM, respectively.
As for `Cc1ccc2c3c(n(C(=O)NCc4ccnc(Cl)c4)c2c1)CCN(C/C=C/c1ccc(C(F)(F)F)cc1)C3` [Example 150, (E)-N-((2-chloropyridin-4-yl)methyl)-7-methyl-2-(3-(4-(trifluoromethyl)-phenyl)allyl)-1,2,3,4-tetrahydro-5H-pyrido[4,3-b]indole-5-carboxamide], the results for the minimal effective concentration in the test on Haemonchus contortus L3 and in the test with D. immitis microfilariae were 3.3 µM and 10 µM, respectively.
The corresponding values for `O=C(NCc1ccnc(Cl)c1)n1c2c(c3cc(Br)c(C(F)(F)F)cc31)CN(C/C=C/c1ccc(Cl)cc1)CC2` [Example 498, (E)-8-bromo-2-(3-(4-chlorophenyl)allyl)-N-((2-chloropyridin-4-yl)methyl)-7-(trifluoromethyl)-1,2,3,4-tetrahydro-5H-pyrido[4,3-b]indole-5-carboxamide] are 1.8 µM and 5.7 µM.
The like results for `O=C(NCc1ccnc(Cl)c1)n1c2c(c3ccc(Cl)cc31)CN(C/C=C/c1ccc(C(F)(F)F)cn1)CC2` [Example 206, (E)-7-chloro-N-((2-chloropyridin-4-yl)methyl)-2-(3-(5-(trifluoromethyl)-pyridin-2-yl)allyl)-1,2,3,4-tetrahydro-5H-pyrido[4,3-b]indole-5-carboxamide] were, in that order, 0.2 µM and 3.3 µM.
The corresponding values for `N#Cc1ccc2c(c1)c1c(n2C(=O)NCc2ccnc(Cl)c2)CCN(C/C=C/c2ccc(F)cc2Cl)C1` [Example 87, (E)-2-(3-(2-chloro-4-fluorophenyl)allyl)-N-((2-chloropyridin-4-yl)methyl)-8-cyano-1,2,3,4-tetrahydro-5H-pyrido[4,3-b]indole-5-carboxamide] are 0.2 µM and 5.7 µM.
For `O=C(NCc1ccnc(Cl)c1)n1c2c(c3c(OC(F)(F)F)cccc31)CN(C/C=C/c1ccc(C(F)(F)F)cc1)CC2` [Example 363, (E)-N-((2-chloropyridin-4-yl)methyl)-9-(trifluoromethoxy)-2-(3-(4-(trifluoro-methyl)phenyl)allyl)-1,2,3,4-tetrahydro-5H-pyrido[4,3-b]indole-5-carboxamide], the minimal effective concentration in the test on Haemonchus contortus L3 is > 100 µM; in the test with D. immitis microfilariae, 33 µM.
Take `O=C(NCc1ccnc(Cl)c1)n1c2c(c3c(Cl)c(F)ccc31)CN(C/C=C/c1ccc(Cl)cc1)CC2` [Example 305, (E)-9-chloro-2-(3-(4-chlorophenyl)allyl)-N-((2-chloropyridin-4-yl)methyl)-8-fluoro-1,2,3,4-tetrahydro-5H-pyrido[4,3-b]indole-5-carboxamide]: the minimal effective concentration in the test on Haemonchus contortus L3 turned out to be 0.9 µM; with D. immitis microfilariae, 16.5 µM.

(Values after patent US10570129B2 (Zoetis Services LLC, priority 2015, dated 2020).)
